Measured values from ChEMBL document CHEMBL2401728, “An unexpected Dimroth rearrangement leading to annelated thieno[3,2-d][1,2,3]triazolo[1,5-a]pyrimidines with potent antitumor activity” (Eur J Med Chem, 2013).

How the values were obtained:
Assay type in all cases: functional
BT-549 = assay: Cytotoxicity against human BT549 cells assessed as cellular growth at 10 uM after 48 hrs by SRB assay relative to control
T47D = assay: Cytotoxicity against human T47D cells assessed as cellular growth at 10 uM after 48 hrs by SRB assay relative to control
MDA-MB-231 = assay: Cytotoxicity against human MDA-MB-231 cells assessed as cellular growth at 10 uM after 48 hrs by SRB assay relative to control
MCF7 = assay: Cytotoxicity against human MCF7 cells assessed as cellular growth at 10 uM after 48 hrs by SRB assay relative to control
DU-145 = assay: Cytotoxicity against human DU145 cells assessed as cellular growth at 10 uM after 48 hrs by SRB assay relative to control
UO-31 = assay: Cytotoxicity against human UO31 cells assessed as cellular growth at 10 uM after 48 hrs by SRB assay relative to control
PC-3 = assay: Cytotoxicity against human PC3 cells assessed as cellular growth at 10 uM after 48 hrs by SRB assay relative to control
TK-10 = assay: Cytotoxicity against human TK10 cells assessed as cellular growth at 10 uM after 48 hrs by SRB assay relative to control
SN12C = assay: Cytotoxicity against human SN12C cells assessed as cellular growth at 10 uM after 48 hrs by SRB assay relative to control
RXF 393 = assay: Cytotoxicity against human RXF393 cells assessed as cellular growth at 10 uM after 48 hrs by SRB assay relative to control
CAKI-1 = assay: Cytotoxicity against human Caki1 cells assessed as cellular growth at 10 uM after 48 hrs by SRB assay relative to control
ACHN = assay: Cytotoxicity against human ACHN cells assessed as cellular growth at 10 uM after 48 hrs by SRB assay relative to control
OVCAR-8 = assay: Cytotoxicity against human OVCAR8 cells assessed as cellular growth at 10 uM after 48 hrs by SRB assay relative to control
[1] = Cytotoxicity against human NCI-ADR-RES cells assessed as cellular growth at 10 uM after 48 hrs by SRB assay relative to control
OVCAR-5 = assay: Cytotoxicity against human OVCAR5 cells assessed as cellular growth at 10 uM after 48 hrs by SRB assay relative to control
OVCAR-3 = assay: Cytotoxicity against human OVCAR3 cells assessed as cellular growth at 10 uM after 48 hrs by SRB assay relative to control
UACC-62 = assay: Cytotoxicity against human UACC62 cells assessed as cellular growth at 10 uM after 48 hrs by SRB assay relative to control
UACC-257 = assay: Cytotoxicity against human UACC257 cells assessed as cellular growth at 10 uM after 48 hrs by SRB assay relative to control
SK-MEL-5 = assay: Cytotoxicity against human SK-MEL-5 cells assessed as cellular growth at 10 uM after 48 hrs by SRB assay relative to control
SK-MEL-2 = assay: Cytotoxicity against human SK-MEL-2 cells assessed as cellular growth at 10 uM after 48 hrs by SRB assay relative to control
MDA-MB-435 = assay: Cytotoxicity against human MDA-MB-435 cells assessed as cellular growth at 10 uM after 48 hrs by SRB assay relative to control
Malme-3M = assay: Cytotoxicity against human MALME-3M cells assessed as cellular growth at 10 uM after 48 hrs by SRB assay relative to control
LOX IMVI = assay: Cytotoxicity against human LOXIMVI cells assessed as cellular growth at 10 uM after 48 hrs by SRB assay relative to control
U-251 = assay: Cytotoxicity against human U251 cells assessed as cellular growth at 10 uM after 48 hrs by SRB assay relative to control
SNB-19 = assay: Cytotoxicity against human SNB19 cells assessed as cellular growth at 10 uM after 48 hrs by SRB assay relative to control
SF-268 = assay: Cytotoxicity against human SF268 cells assessed as cellular growth at 10 uM after 48 hrs by SRB assay relative to control
SF-295 = assay: Cytotoxicity against human SF295 cells assessed as cellular growth at 10 uM after 48 hrs by SRB assay relative to control
KM12 = assay: Cytotoxicity against human KM12 cells assessed as cellular growth at 10 uM after 48 hrs by SRB assay relative to control
HT-29 = assay: Cytotoxicity against human HT-29 cells assessed as cellular growth at 10 uM after 48 hrs by SRB assay relative to control
HCT-15 = assay: Cytotoxicity against human HCT15 cells assessed as cellular growth at 10 uM after 48 hrs by SRB assay relative to control
COLO 205 = assay: Cytotoxicity against human COLO205 cells assessed as cellular growth at 10 uM after 48 hrs by SRB assay relative to control
NCI-H522 = assay: Cytotoxicity against human NCI-H522 cells assessed as cellular growth at 10 uM after 48 hrs by SRB assay relative to control
NCI-H460 = assay: Cytotoxicity against human NCI-H460 cells assessed as cellular growth at 10 uM after 48 hrs by SRB assay relative to control
NCI-H23 = assay: Cytotoxicity against human NCI-H23 cells assessed as cellular growth at 10 uM after 48 hrs by SRB assay relative to control
NCI-H226 = assay: Cytotoxicity against human NCI-H226 cells assessed as cellular growth at 10 uM after 48 hrs by SRB assay relative to control
HOP-92 = assay: Cytotoxicity against human HOP92 cells assessed as cellular growth at 10 uM after 48 hrs by SRB assay relative to control
A549 = assay: Cytotoxicity against human A549 cells assessed as cellular growth at 10 uM after 48 hrs by SRB assay relative to control
RPMI-8226 = assay: Cytotoxicity against human RPMI8226 cells assessed as cellular growth at 10 uM after 48 hrs by SRB assay relative to control
SR = assay: Cytotoxicity against human SR cells assessed as cellular growth at 10 uM after 48 hrs by SRB assay relative to control
MOLT-4 = assay: Cytotoxicity against human MOLT4 cells assessed as cellular growth at 10 uM after 48 hrs by SRB assay relative to control
HL-60(TB) = assay: Cytotoxicity against human HL-60(TB) cells assessed as cellular growth at 10 uM after 48 hrs by SRB assay relative to control
K562 = assay: Cytotoxicity against human K562 cells assessed as cellular growth at 10 uM after 48 hrs by SRB assay relative to control
CCRF-CEM = assay: Cytotoxicity against human CCRF-CEM cells assessed as cellular growth at 10 uM after 48 hrs by SRB assay relative to control

O=C(CCCn1c2c(sc3ccccc32)c(=O)n2nnc(-c3ccccc3)c12)NCCc1c[nH]cn1
Activity (BT-549): 4% | Activity (T47D): -25.44% | Activity (MDA-MB-231): -64% | Activity (MCF7): -100% | Activity (DU-145): -100% | Activity (UO-31): -97% | Activity (PC-3): -84.51% | Activity (TK-10): -91% | Activity (SN12C): -80% | Activity (RXF 393): -70% | Activity (CAKI-1): -83.98% | Activity (ACHN): -84% | Activity (OVCAR-8): -50.58% | Activity [1]: 8% | Activity (OVCAR-5): -91% | Activity (OVCAR-3): -96% | Activity (UACC-62): -76% | Activity (UACC-257): -69% | Activity (SK-MEL-5): -67.14% | Activity (SK-MEL-2): -90.32% | Activity (MDA-MB-435): -95.09% | Activity (Malme-3M): -76.11% | Activity (LOX IMVI): -96% | Activity (U-251): -100% | Activity (SNB-19): 27.29% | Activity (SF-268): -77% | Activity (SF-295): -83% | Activity (KM12): -90% | Activity (HT-29): -100% | Activity (HCT-15): -75% | Activity (COLO 205): -77% | Activity (NCI-H522): -95.79% | Activity (NCI-H460): -93.2% | Activity (NCI-H23): -54% | Activity (NCI-H226): -14% | Activity (HOP-92): -75.7% | Activity (A549): -75.35% | Activity (RPMI-8226): -4.25% | Activity (SR): -64% | Activity (MOLT-4): 79.44% | Activity (HL-60(TB)): -29% | Activity (K562): -70% | Activity (CCRF-CEM): -58%

O=C(O)CCCn1c2c(sc3ccccc32)c(=O)n2nnc(-c3ccccc3)c12
Activity (BT-549): 54.36% | Activity (T47D): 78.01% | Activity (MDA-MB-231): 92.52% | Activity (MCF7): 84.04% | Activity (DU-145): 94.87% | Activity (UO-31): 69.07% | Activity (PC-3): 89.28% | Activity (TK-10): 98.3% | Activity (SN12C): 88.81% | Activity (RXF 393): 51.92% | Activity (CAKI-1): 60.48% | Activity (ACHN): 79.06% | Activity (OVCAR-8): 77.77% | Activity [1]: 107.52% | Activity (OVCAR-5): 154.53% | Activity (OVCAR-3): 103.59% | Activity (UACC-62): 75.64% | Activity (UACC-257): 111.46% | Activity (SK-MEL-5): 79.01% | Activity (SK-MEL-2): 107.41% | Activity (MDA-MB-435): 89.16% | Activity (Malme-3M): 106.11% | Activity (LOX IMVI): 94.14% | Activity (U-251): 94.66% | Activity (SNB-19): 76.27% | Activity (SF-268): 91.25% | Activity (SF-295): 92.89% | Activity (KM12): 86.08% | Activity (HT-29): 92.57% | Activity (HCT-15): 66.61% | Activity (COLO 205): 110.27% | Activity (NCI-H522): 34.84% | Activity (NCI-H460): 74.3% | Activity (NCI-H23): 118.45% | Activity (NCI-H226): 82.97% | Activity (HOP-92): 107.65% | Activity (A549): 89.47% | Activity (RPMI-8226): 93.76% | Activity (SR): 117.58% | Activity (MOLT-4): 96.85% | Activity (HL-60(TB)): 113.58% | Activity (K562): 96.49% | Activity (CCRF-CEM): 92.35%

CN1CCN(CCCn2c3c(sc4ncccc43)c(=O)n3nnc(-c4ccccc4)c23)CC1
Activity (BT-549): 76% | Activity (T47D): 103% | Activity (MDA-MB-231): -83.53% | Activity (MCF7): -91% | Activity (DU-145): -74% | Activity (UO-31): -90.79% | Activity (PC-3): -3.82% | Activity (TK-10): -88% | Activity (SN12C): -55% | Activity (RXF 393): -93% | Activity (CAKI-1): -79% | Activity (ACHN): -77% | Activity (OVCAR-8): -48.18% | Activity [1]: -29% | Activity (OVCAR-5): -15% | Activity (OVCAR-3): -83.15% | Activity (UACC-62): 85% | Activity (UACC-257): -87% | Activity (SK-MEL-5): -98% | Activity (SK-MEL-2): 99.31% | Activity (MDA-MB-435): -81% | Activity (Malme-3M): -82% | Activity (LOX IMVI): -96.04% | Activity (U-251): -84% | Activity (SNB-19): -63% | Activity (SF-268): -77% | Activity (SF-295): -79% | Activity (KM12): -79% | Activity (HT-29): -46.19% | Activity (HCT-15): -63% | Activity (COLO 205): -82% | Activity (NCI-H522): -76% | Activity (NCI-H460): -70.68% | Activity (NCI-H23): -39% | Activity (NCI-H226): 71% | Activity (HOP-92): 42% | Activity (A549): -74.7% | Activity (RPMI-8226): -48% | Activity (SR): -50% | Activity (MOLT-4): -50% | Activity (HL-60(TB)): -56% | Activity (K562): -41% | Activity (CCRF-CEM): -45%
